Experimental data reported in patent publication US7244763B2, “Compounds that modulate PPAR activity and methods of preparation” (Warner Lambert Company LLC, priority 2003, dated 2007).
pEC50, pIC50: −log10 of the molar value.

Tests used:
[1] = target: T1, hPPARβ (Homo sapiens, UniProt Q03181); assay: Test A transient transfection assay, HepG2 cells, Gal4-PPAR chimeric receptor luciferase reporter (Hep G2-hBeta); assay type: cell-based; conditions: HepG2 cells transfected with hPPARβ chimeric receptor, 24 hours, read-out: EC50β (Hep G2-hBeta EC50)
T1 construct: expression plasmids encoding hPPARα, hPPARβ or mPPARγ chimeric receptors
T1 sequence (Q03181 171-441 limits assumed): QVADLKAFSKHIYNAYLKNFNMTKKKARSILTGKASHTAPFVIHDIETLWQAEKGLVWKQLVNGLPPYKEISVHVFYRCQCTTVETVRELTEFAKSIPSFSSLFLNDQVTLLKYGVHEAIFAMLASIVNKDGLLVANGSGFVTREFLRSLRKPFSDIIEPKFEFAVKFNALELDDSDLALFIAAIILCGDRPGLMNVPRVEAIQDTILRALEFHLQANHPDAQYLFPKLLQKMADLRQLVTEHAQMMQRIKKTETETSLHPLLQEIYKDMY
Procedure: (§1) 1. Test A. Transient Transfections Assay Using the HepG2 Hepatoma Cell Line.
(§2) HepG2 cells were transiently transfected with an expression plasmids encoding hPPARα, hPPARβ or mPPARγ chimeric receptors and a reporter containing the yeast upstream activating sequence (UAS) upstream of the viral E1B promoter controlling a luciferase reporter gene. In addition, the plasmid pRSVβ-gal was used to control for transfection efficiency. HepG2 cells were grown in DMEM supplemented with 10% FBS and 1 μM non-essential amino acid. On the first day, cells were split into 100 mm dishes at 2.5×10^6/dish and incubated overnight at 37C.°/5% CO2. On the second day the cells were transiently transfected with plasmid DNA encoding a chimeric receptor, the luciferase reporter gene; and β-gal. For each 100 mm dish, 15 μg of luciferase reporter (PG5E1b) DNA, 15 μg of Gal4-PPAR chimeric receptor DNA, and 1.5 μg of β-gal plasmid DNA were mixed with 1.4 ml of opti-MEM in the tube. 281 μl of LipoFectamine-2000 reagent was added to 1.4 ml of opti-MEM in the tube, and incubate for 5 min at RT. The diluted Lipofectamine-2000 reagent was combined with the DNA mixture, and incubate for 20 min at RT. After fresh medium was added to each 100 mm dish of cells, 2.8 ml of Lipofectamine2000-DNA mixture was added dropwise to the 100 mm dish containing 14 ml of medium, and incubate 37° C. overnight. […]

[2] = target: T2, human PPARβ LBD (Homo sapiens, UniProt Q03181); assay: Test B radioligand competition binding assay (SPA), PPARβ LBD-GST fusion protein; conditions: concentration that inhibits 50% of interaction between PPARβ LBD and tritiated ligand
T2 construct: made in house; host or cells: E. coli BL21(DE3)pLysS
T2 sequence (Q03181 211-439 limits assumed): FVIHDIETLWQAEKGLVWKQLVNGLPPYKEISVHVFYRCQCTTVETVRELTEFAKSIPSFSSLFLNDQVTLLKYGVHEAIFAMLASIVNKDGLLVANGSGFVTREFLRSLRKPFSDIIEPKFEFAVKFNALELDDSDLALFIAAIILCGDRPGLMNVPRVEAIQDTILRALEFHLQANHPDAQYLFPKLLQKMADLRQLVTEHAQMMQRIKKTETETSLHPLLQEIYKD
Description: 2. Test B. Radioligand Binding Assay
The ability of a compound to interact with PPARβ can be determined using a competition-based receptor binding assay that employs a radiolabeled PPARβ ligand together with a fragment of the PPARβ receptor containing the ligand binding domain (LBD) fused to the protein glutathione-S-transferase (GST). • [1] Preparation of PPARβ LBD-GST fusion protein. The ligand binding domain of the human PPARβ LBD-GST fusion protein can be expressed in E. coli and purified as outlined below. DNA encoding the LBD of human PPARβ is amplified via PCR and inserted in-frame into the bacterial expression vector pGEX-2t PPARβ LBD-GST fusion proteins are expressed in BL21(DE3)pLysS cells. After a 1–2 hr incubation with up to 1 mM IPTG, the cells are lysed by freeze-thaw in buffer containing 50 mM Tris (pH=8), 250 mM KCl, 10 mM DTT, 1 mM PMSF, and 1% triton X-100. After room temperature DNAse and RNAse treatment for 15 min and centrifugation for 1 hr at 50,000×g, 1.5 ml of a glutathione-Sepharose 4B slurry in PBS is added to the resulting supernatant and the mixture is incubated at room temperature for 30 min. […] After incubation with shaking at room temperature for 30 minutes, radioactivity bound to the PPARβ LBD-GST fusion protein/anti-GST/SPA antibody-binding bead complex is assessed using a Wallac MicroBeta plate reader. […]

[3] = target: T3, PPARαLBD (Homo sapiens, UniProt Q07869); assay: Test B radioligand competition binding assay, similar procedure with PPARα LBD; conditions: competition binding to PPARα LBD
T3 construct: GST (inferred from 'similar procedure')
T3 sequence (Q07869 239-466 limits assumed): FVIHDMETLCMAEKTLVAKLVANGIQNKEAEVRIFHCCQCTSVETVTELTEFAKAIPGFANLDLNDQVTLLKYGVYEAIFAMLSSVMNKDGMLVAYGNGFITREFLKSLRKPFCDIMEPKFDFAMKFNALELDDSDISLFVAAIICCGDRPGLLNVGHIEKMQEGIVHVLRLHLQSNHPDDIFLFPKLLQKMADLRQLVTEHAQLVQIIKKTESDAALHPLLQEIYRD

[4] = target: T4, hPPARα (Homo sapiens, UniProt Q07869); assay: Test A transient transfection assay, HepG2 cells, Gal4-PPAR chimeric receptor luciferase reporter (Hep G2-hAlpha); assay type: cell-based; conditions: HepG2 cells transfected with hPPARα chimeric receptor, 24 hours, read-out: EC50α (Hep G2-hAlpha EC50)
T4 construct: expression plasmids encoding hPPARα, hPPARβ or mPPARγ chimeric receptors
T4 sequence (Q07869 200-468 limits assumed): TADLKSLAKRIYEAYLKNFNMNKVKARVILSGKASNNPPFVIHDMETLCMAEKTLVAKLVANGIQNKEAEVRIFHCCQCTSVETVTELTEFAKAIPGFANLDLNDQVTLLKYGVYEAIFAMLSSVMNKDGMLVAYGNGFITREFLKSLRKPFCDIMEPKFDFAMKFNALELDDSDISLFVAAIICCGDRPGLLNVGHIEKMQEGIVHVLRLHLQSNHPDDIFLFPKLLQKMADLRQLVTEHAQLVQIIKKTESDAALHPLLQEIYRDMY
Procedure: as §1, §2

O=C(O)CC1CCc2cc(SCc3ccc(-c4ccc(C(F)(F)F)cn4)cc3)ccc2O1 (centres unmarked) [Compound 10, {6-[4-(5-Trifluoromethyl-pyridin-2-yl)-benzylsulfanyl]-chroman-2-yl}-acetic acid]
pEC50 [1]: 5.18

COc1cc(C(C)(C)C(=O)O)ccc1SCc1ccc(-c2ccc(C(F)(F)F)cn2)cc1 [Compound 21, 2-{3-Methoxy-4-[4-(5-trifluoromethyl-pyridin-2-yl)-benzylsulfanyl]-phenyl}-2-methyl-propionic acid]
pEC50 [1]: 6.52
pIC50 [2]: 6.35

O=C(O)COc1ccc(SCc2ccc(OC3CCc4cc(Cl)ccc43)cc2)c2c1CCC2 (centres unmarked) [Compound 23, {7-[4-(5-Chloro-indan-1-yloxy)-benzylsulfanyl]-indan-4-yloxy}-acetic acid]
melting point: 169 to 170 °C

O=C(O)Cc1coc2cc(OCc3cc(-c4ccc(Cl)cc4)on3)ccc12 [Compound 24, {6-[5-(4-Chloro-phenyl)-isoxazol-3-ylmethoxy]-benzofuran-3-yl}-acetic acid]
melting point: 193 to 194 °C

O=C(O)Cc1coc2cc(OCc3ccc(OCc4ccc(C(F)(F)F)cc4)cc3)ccc12 [Compound 25, {6-[4-(4-Trifluoromethyl-benzyloxy)-benzyloxy]-benzofuran-3-yl}-acetic acid]
melting point: 161 to 163 °C

Cc1cc(SCCCc2ccc3ccccc3c2)ccc1OCC(=O)O [Compound 27, [2-Methyl-4-(3-naphthalen-2-yl-propylsulfanyl)-phenoxy]-acetic acid]
pIC50 [3]: 5.45

Cc1cc(SCCCCOc2ccc(Cl)cc2Cl)ccc1OCC(=O)O [Compound 31, {4-[4-(2,4-Dichloro-phenoxy)-butylsulfanyl]-2-methyl-phenoxy}-acetic acid]
pIC50 [2]: 8.17

O=C(O)C1(c2ccc(SCc3ccc(-c4ccc(C(F)(F)F)cc4)cc3)cc2)CC1 [Compound 36, 1-[4-(4′-Trifluoromethyl-biphenyl-4-ylmethylsulfanyl)-phenyl]-cyclopropanecarboxylic acid]
pEC50 [4]: 5.71

O=C(O)Cc1csc2c(OCc3cc(-c4ccc(Cl)cc4)on3)cccc12 [Compound 77, {7-[5-(4-Chloro-phenyl)-isoxazol-3-ylmethoxy]-benzo[b]thiophen-3-yl}-acetic acid]
melting point: 229 to 230 °C (dec.)

Cc1cc2c(CC(=O)O)csc2cc1OCc1ccccc1OCc1ccc(C(F)(F)F)cc1 [Compound 78, {5-Methyl-6-[2-(4-trifluoromethyl-benzyloxy)-benzyloxy]-benzo[b]-thiophen-3-yl}-acetic acid]
melting point: 157 to 158 °C
